The subject of this experiment is CD2F1 mice, L1210 leukemia ip, survival T/C. As to the kind of experiment: NCI In Vivo Anticancer Drug Screen. Data for tumor model L1210 Leukemia (intraperitoneal) in CD2F1 (CDF1) mice. The note with it: endpoint: mean survival time, higher = longer survival. An outline of the steps:
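Each value reflects a quotient of treated over vehicle control outcomes in mice with a transplanted tumor.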

The mark [1] stands for this setting: dose: 75.0 mg/kg/injection, schedule: Q01DX001 (ip), vehicle: saline.
Where [2] appears, read: dose: 100.0 mg/kg/injection, schedule: Q04DX003 (ip), vehicle: saline with Tween-80.
Setting [3] is: dose: 200.0 mg/kg/injection, schedule: Q04DX003 (ip), vehicle: saline with Tween-80.
Setting [4] is: dose: 400.0 mg/kg/injection, schedule: Q04DX003 (ip), vehicle: saline with Tween-80.
Setting [5] is: dose: 12.5 mg/kg/injection, schedule: Q01DX009 (ip), vehicle: saline with Tween-80.
Where [6] appears, read: dose: 25.0 mg/kg/injection, schedule: Q01DX009 (ip), vehicle: saline with Tween-80.
Where [7] appears, read: dose: 100.0 mg/kg/injection, schedule: Q01DX001 (ip), vehicle: saline with Tween-80.
Where [8] appears, read: dose: 200.0 mg/kg/injection, schedule: Q01DX001 (ip), vehicle: saline with Tween-80.
Setting [9] is: dose: 400.0 mg/kg/injection, schedule: Q01DX001 (ip), vehicle: saline with Tween-80.

Toxic doses and inconclusive results are not listed.

As to `O=C(CSC1=NCCN1)c1ccccc1`, the T/C (dose: 12.5 mg/kg/injection, schedule: Q01DX009 (ip), vehicle: saline) is 101 % of control; the T/C (dose: 25.0 mg/kg/injection, schedule: Q01DX009 (ip), vehicle: saline) was 101 % of control; the T/C (dose: 50.0 mg/kg/injection, schedule: Q01DX009 (ip), vehicle: saline) was 102 % of control.
With `CN(C)c1ccc(C(=C(c2ccc(N(C)C)cc2)c2ccc(N(C)C)cc2)c2ccc(N(C)C)cc2)cc1`, under setting [1], the T/C is 106 % of control.
On to `NC1=Nc2ccccc2CS1`, for which the T/C was 95 % of control (dose: 9.4 mg/kg/injection, schedule: Q01DX009 (ip), vehicle: saline); 107 % of control (dose: 18.8 mg/kg/injection, schedule: Q01DX009 (ip), vehicle: saline); 89 % of control (dose: 37.5 mg/kg/injection, schedule: Q01DX009 (ip), vehicle: saline); 98 % of control under setting [1].
For `CCCCCCCCCCCCCCCCC(C)(O)C#CC(C)(O)CCCCCCCCCCCCCCCC` (centres undefined), the T/C by setting is: (dose: 100.0 mg/kg/injection, schedule: Q01DX005 (ip), vehicle: other) 97 % of control; (dose: 200.0 mg/kg/injection, schedule: Q01DX005 (ip), vehicle: other) 97 % of control; (dose: 400.0 mg/kg/injection, schedule: Q01DX005 (ip), vehicle: other) 101 % of control.
Consider `CCOC(=S)S`, for which the T/C (dose: 100.0 mg/kg/injection, schedule: Q01DX009 (ip), vehicle: saline sonified) is 103 % of control; the T/C (dose: 100.0 mg/kg/injection, schedule: Q04DX003 (ip), vehicle: saline) was 96 % of control; the T/C (dose: 200.0 mg/kg/injection, schedule: Q01DX009 (ip), vehicle: saline sonified) was 97 % of control; the T/C (dose: 400.0 mg/kg/injection, schedule: Q04DX003 (ip), vehicle: saline) is 104 % of control.
Consider `CCC1(C(=O)OC)CCC2C3CCC4CCCCC4(C)C3CCC21C` (centres undefined), for which the T/C (dose: 75.0 mg/kg/injection, schedule: Q04DX003 (sc), vehicle: steriod suspending solution) is 103 % of control; the T/C (dose: 150.0 mg/kg/injection, schedule: Q04DX003 (sc), vehicle: steriod suspending solution) was 101 % of control; the T/C (dose: 300.0 mg/kg/injection, schedule: Q04DX003 (sc), vehicle: steriod suspending solution) is 101 % of control.
Consider `COc1ccc2nc3cc(Cl)ccc3c(N)c2c1`, for which the T/C by setting is: (dose: 2.5 mg/kg/injection, schedule: Q01DX009 (ip), vehicle: Klucel (hydroxypropylcellulose) (HPC)) 110 % of control; (dose: 5.0 mg/kg/injection, schedule: Q01DX009 (ip), vehicle: Klucel (hydroxypropylcellulose) (HPC)) 103 % of control; (dose: 10.0 mg/kg/injection, schedule: Q01DX009 (ip), vehicle: Klucel (hydroxypropylcellulose) (HPC)) 98 % of control.
On to `NN=C1c2ccccc2-c2ccccc21`, for which the T/C is 94 % of control under setting [2], 86 % of control under setting [3] and 96 % of control under setting [4].
As to `CCCCCCCCCCC(=O)OCC1OC2C(Oc3nc(=N)ccn32)C1OC(=O)CCCCCCCCCC` (centres undefined), the T/C by setting is: (dose: 12.5 mg/kg/injection, schedule: Q01DX009 (ip), vehicle: water) 156 % of control; (dose: 25.0 mg/kg/injection, schedule: Q01DX009 (ip), vehicle: water) 202 % of control; (dose: 50.0 mg/kg/injection, schedule: Q01DX009 (ip), vehicle: water) 242 % of control; (dose: 100.0 mg/kg/injection, schedule: Q01DX009 (ip), vehicle: water) 118 % of control.
`Cc1cccc(S(=O)(=O)N(C)C)c1`: the T/C (dose: 100.0 mg/kg/injection, schedule: Q01DX009 (ip), vehicle: saline with Tween-80) is 95 % of control; the T/C under setting [2] is 94 % of control; the T/C (dose: 200.0 mg/kg/injection, schedule: Q01DX009 (ip), vehicle: saline with Tween-80) is 95 % of control; the T/C under setting [3] was 92 % of control; the T/C (dose: 400.0 mg/kg/injection, schedule: Q01DX009 (ip), vehicle: saline with Tween-80) was 92 % of control; the T/C under setting [4] is 96 % of control.
`CC(=O)C1CCC2C3CC=C4CC(n5cc(F)c(=O)[nH]c5=O)CCC4(C)C3CCC12C` (centres undefined): the T/C runs as follows: (dose: 12.5 mg/kg/injection, schedule: Q04DX003 (ip), vehicle: Klucel (hydroxypropylcellulose) (HPC)) 97 % of control; (dose: 25.0 mg/kg/injection, schedule: Q04DX003 (ip), vehicle: Klucel (hydroxypropylcellulose) (HPC)) 101 % of control; (dose: 50.0 mg/kg/injection, schedule: Q04DX003 (ip), vehicle: Klucel (hydroxypropylcellulose) (HPC)) 97 % of control; (dose: 100.0 mg/kg/injection, schedule: Q04DX003 (ip), vehicle: Klucel (hydroxypropylcellulose) (HPC)) 98 % of control; (dose: 200.0 mg/kg/injection, schedule: Q04DX003 (ip), vehicle: Klucel (hydroxypropylcellulose) (HPC)) 91 % of control.
Turning to `Cc1ccc(NC(=O)CI)cc1`, under “dose: 100.0 mg/kg/injection, schedule: Q04DX002 (ip), vehicle: other”, the T/C was 102 % of control.
Take `NC1CC(CO)C(O)C1O` (centres undefined): the T/C runs as follows: under setting [1], 101 % of control; (dose: 150.0 mg/kg/injection, schedule: Q01DX001 (ip), vehicle: saline) 103 % of control; (dose: 300.0 mg/kg/injection, schedule: Q01DX001 (ip), vehicle: saline) 107 % of control.
For `Brc1cscc1-c1cccc2ccccc12`, the T/C under setting [5] was 95 % of control; the T/C under setting [6] was 95 % of control; the T/C (dose: 50.0 mg/kg/injection, schedule: Q01DX009 (ip), vehicle: saline with Tween-80) was 95 % of control.
Regarding `Cc1nc2nc(N)[nH]c(=O)c2nc1C`, the T/C was 95 % of control under setting [7], 98 % of control under setting [8] and 90 % of control under setting [9].
As for `CC1(C)C2CCC1(CS(=O)(=O)O)C(=O)C2Br.[Ag]` (centres undefined), the T/C (dose: 100.0 mg/kg/injection, schedule: Q04DX003 (ip), vehicle: acetone) is 96 % of control.
With `Nc1nc(=O)n(CCCOc2ccccc2NC(=O)c2ccc(S(=O)(=O)F)cc2)cc1-c1ccc(Cl)c(Cl)c1`, the T/C (dose: 50.0 mg/kg/injection, schedule: Q01DX001 (ip), vehicle: saline with Tween-80) is 96 % of control; the T/C under setting [7] is 93 % of control; the T/C under setting [8] is 93 % of control.
On to `O=c1c2cc[nH]c2ncn1C1OC(CO)C(O)C1O` (centres undefined), for which the T/C is 96 % of control (dose: 12.5 mg/kg/injection, schedule: Q01DX005 (ip), vehicle: saline) and 107 % of control (dose: 25.0 mg/kg/injection, schedule: Q01DX005 (ip), vehicle: saline).
Consider `C(=C\c1cc[n+](CCc2ccccc2)cc1)/c1ccccc1`, for which the T/C was 104 % of control (dose: 6.25 mg/kg/injection, schedule: Q01DX009 (ip), vehicle: saline with Tween-80); 98 % of control under setting [5]; 108 % of control under setting [6].
For `CN(C)NC=O`, the T/C (dose: 100.0 mg/kg/injection, schedule: Q04DX002 (ip), vehicle: saline) is 101 % of control; the T/C (dose: 200.0 mg/kg/injection, schedule: Q04DX002 (ip), vehicle: saline) is 101 % of control; the T/C (dose: 400.0 mg/kg/injection, schedule: Q04DX002 (ip), vehicle: saline) was 101 % of control.
As for `c1ccc(C2Nc3ccccc3NC2c2ccccc2)cc1` (centres undefined), the T/C was 95 % of control under setting [7], 97 % of control under setting [8] and 103 % of control under setting [9].
`ClCCCN1CCCCC1CCl` (centres undefined): the T/C (dose: 3.12 mg/kg/injection, schedule: Q04DX003 (ip), vehicle: saline) was 104 % of control; the T/C (dose: 6.25 mg/kg/injection, schedule: Q04DX003 (ip), vehicle: saline) is 113 % of control; the T/C (dose: 25.0 mg/kg/injection, schedule: Q04DX003 (ip), vehicle: saline) is 173 % of control.
With `O=C1C=C(c2ccccc2)C(O)(c2ccccc2)/C1=C/c1ccccc1` (centres undefined), the T/C was 87 % of control (dose: 100.0 mg/kg/injection, schedule: Q04DX002 (ip), vehicle: saline with Tween-80) and 88 % of control (dose: 200.0 mg/kg/injection, schedule: Q04DX002 (ip), vehicle: saline with Tween-80).
As for `CCC1CN2CCc3cc(OC)c(OC)cc3C2CC1CC1c2cc(OC)c(OC)cc2CCN1C(=O)C(Cc1c[nH]c2ccccc12)NC(=O)OC(C)(C)C` (centres undefined), the T/C is, setting by setting: (dose: 8.0 mg/kg/injection, schedule: Q04DX003 (ip), vehicle: saline with Tween-80) 93 % of control; (dose: 16.0 mg/kg/injection, schedule: Q04DX003 (ip), vehicle: saline with Tween-80) 95 % of control; (dose: 32.0 mg/kg/injection, schedule: Q04DX003 (ip), vehicle: saline with Tween-80) 98 % of control; (dose: 64.0 mg/kg/injection, schedule: Q04DX003 (ip), vehicle: saline with Tween-80) 89 % of control; (dose: 128.0 mg/kg/injection, schedule: Q04DX003 (ip), vehicle: saline with Tween-80) 87 % of control.

Values taken from PubChem BioAssay AID256 (DTP/NCI, 2004).
